The values that follow come from US11377442B2, “Small molecule agonists and antagonists of NR2F6 activity” (ZANDER THERAPEUTICS, INC., priority 2016, dated 2022).

Molecules are shown by their SMILES.

What all share (format): cell-based
One assay has as its target T1, NR2F6 (Homo sapiens, UniProt P10588).
T1 construct: expressed in transfected cells; also transient transfection
T1 sequence (P10588 1-404): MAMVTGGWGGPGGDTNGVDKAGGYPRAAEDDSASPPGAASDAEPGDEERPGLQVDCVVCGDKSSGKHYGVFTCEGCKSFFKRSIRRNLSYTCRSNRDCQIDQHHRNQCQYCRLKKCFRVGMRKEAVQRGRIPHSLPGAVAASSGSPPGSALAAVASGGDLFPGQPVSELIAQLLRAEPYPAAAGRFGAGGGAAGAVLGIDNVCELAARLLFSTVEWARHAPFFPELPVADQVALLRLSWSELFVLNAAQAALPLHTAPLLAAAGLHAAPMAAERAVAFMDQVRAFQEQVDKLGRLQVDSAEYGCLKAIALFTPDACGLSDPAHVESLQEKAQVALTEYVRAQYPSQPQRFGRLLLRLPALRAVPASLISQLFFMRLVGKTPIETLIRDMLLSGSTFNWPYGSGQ
The assay is described as follows: NR2F6 agonist screening, Firefly signal cmpd/DMSO. The following applies: Table 15.

Assay [1] concerns the target T2, ERα (Homo sapiens, UniProt P03372).
T2 construct: expressed in transfected cells
T2 sequence (P03372 1-595): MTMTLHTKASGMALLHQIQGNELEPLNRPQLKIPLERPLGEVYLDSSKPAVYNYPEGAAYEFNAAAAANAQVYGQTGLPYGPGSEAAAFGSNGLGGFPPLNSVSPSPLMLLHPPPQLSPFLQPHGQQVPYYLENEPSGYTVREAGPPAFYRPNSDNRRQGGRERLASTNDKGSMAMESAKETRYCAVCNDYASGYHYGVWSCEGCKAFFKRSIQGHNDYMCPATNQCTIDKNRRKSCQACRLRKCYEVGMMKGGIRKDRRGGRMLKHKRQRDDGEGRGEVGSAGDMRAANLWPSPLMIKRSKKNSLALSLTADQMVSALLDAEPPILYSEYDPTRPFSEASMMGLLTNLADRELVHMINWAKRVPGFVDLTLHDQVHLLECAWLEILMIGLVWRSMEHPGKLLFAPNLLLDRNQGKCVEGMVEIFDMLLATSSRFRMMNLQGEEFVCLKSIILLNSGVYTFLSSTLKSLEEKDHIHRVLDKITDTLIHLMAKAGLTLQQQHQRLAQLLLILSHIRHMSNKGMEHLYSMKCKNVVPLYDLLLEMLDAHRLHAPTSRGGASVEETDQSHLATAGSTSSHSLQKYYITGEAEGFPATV
The assay is described as follows: Counterscreening, Firefly signal with ERα transient transfection (Firefly_ERa). The following applies: Table 15; 10 uM. Here is the method:
The methodology for screening candidate compounds as NR2F6 agonists was as follows: For primary screening, hit criteria was ACT %>DMSO control+5*SD (DSO control) at 10 μM, or any compound with S/B>2. For rescreening, hit criteria was ACT %>DMSO control+3*SD (DSO control) in each replicate at 10 μM. For counterscreening, hit criteria was mean ACT<DMSO control+3*SD (DMSO control) with ERα transient transfection in duplicate at 10 μM.
(A counterscreen serves to expose hits that act by an unwanted route or on another target.)

The test system of another assay is Renilla. In words: Renilla signal in NR2F6 agonist screening, cmpd/DMSO. The following applies: Renilla, Table 15, read-out: Renilla F4, cmpd/DMSO (mean).
For the next assay, the system named is Renilla_ERa. The assay is described as follows: Renilla signal in ERα counterscreen (Renilla_ERa). The following applies: Table 15, read-out: Renilla ERalpha transient, cmpd/DMSO (mean).
The target in assay [2] is T2, ERα. In words: Counterscreening, Firefly signal with ERα transient transfection (Firefly_ERa). The following applies: Table 15.

With `CCOC(=O)c1cnc2c(C)cc(C)cc2c1NCCCOC` [Compound Z71], the “Firefly F4, cmpd/DMSO (mean)” value worked out at 0.8 at NR2F6 (2 uM), 1.0 on NR2F6 (10 uM) and 0.8 on NR2F6 (40 uM). Besides, the “Firefly ERalpha transient, cmpd/DMSO (mean)” value at ERα [1] worked out at 1.0; at ERα [2] (2 uM), 1.4; on ERα [2] (40 uM) it was 0.4. The fold induction at 2 µM with Renilla is 1.1; in the assay on Renilla_ERa it was 1. Further, the results for the fold induction at 10 µM in the assay on Renilla and in the assay with Renilla_ERa were 0.9 and 1, respectively. Besides, the fold induction at 40 µM amounted to 0.4 with Renilla and 0.5 in the assay on Renilla_ERa.

For the molecule `CCOC(=O)c1cnc2c(C)cc(C)cc2c1NCc1ccc(Cl)cc1` [Compound Z75], the “Firefly F4, cmpd/DMSO (mean)” value is on record as 0.9 on NR2F6 (2 uM), 1.2 on NR2F6 (10 uM) and 0.8 on NR2F6 (40 uM). Besides, the “Firefly ERalpha transient, cmpd/DMSO (mean)” value is reported as 1.9 at ERα [1], 1.1 at ERα [2] (2 uM) and 0.9 on ERα [2] (40 uM). Besides, the results for the fold induction at 2 µM in the assay with Renilla and in the assay with Renilla_ERa were 1.1 and 1, respectively. Moreover, the fold induction at 10 µM stood at 1 with Renilla and 0.9 in the assay on Renilla_ERa. The fold induction at 40 µM with Renilla was 0.8; with Renilla_ERa it was 0.7.

As for `CCOC(=O)c1cnc2c(C)cc(C)cc2c1N1CCC(C)CC1` [Compound Z76], the entries for the “Firefly F4, cmpd/DMSO (mean)” value on NR2F6 (2 uM), on NR2F6 (10 uM) and on NR2F6 (40 uM) were 0.8, 1.8 and 0.8, respectively. The “Firefly ERalpha transient, cmpd/DMSO (mean)” value at ERα [1] is 1.9; at ERα [2] (2 uM) it was 1.3; at ERα [2] (40 uM) it was 0.7. Further, the figures for the fold induction at 2 µM in the assay with Renilla and with Renilla_ERa were 1 and 1.1, respectively. The fold induction at 10 µM in the assay with Renilla and with Renilla_ERa was 0.8 each time. The fold induction at 40 µM stood at 0.5 in the assay with Renilla and 0.4 with Renilla_ERa.

With `CCOC(=O)c1cnc2c(C)cc(C)cc2c1N1CCC(O)CC1` [Compound Z78], the figures for the “Firefly F4, cmpd/DMSO (mean)” value at NR2F6 (2 uM), at NR2F6 (10 uM) and on NR2F6 (40 uM) were 1.4, 1.5 and 1.6, respectively. In addition, the “Firefly ERalpha transient, cmpd/DMSO (mean)” value stood at 2.4 at ERα [1], 1.5 at ERα [2] (2 uM) and 1.1 at ERα [2] (40 uM). The values for the fold induction at 2 µM in the assay with Renilla and with Renilla_ERa were 1.1 and 1, respectively. For the same molecule, the fold induction at 10 µM with Renilla came out at 1; with Renilla_ERa it was 0.9. The fold induction at 40 µM with Renilla was found to be 0.8; in the assay with Renilla_ERa, 0.6.
